Test results published in patent US6586457B2, “Methods for inhibiting bone resorption” (Merck & Co., Inc., priority 1998, dated 2003).
Entries after “also recorded” stand apart in the source; their conditions may differ.

How the values were obtained:
EP4 mRNA [1] = assay: EP4 mRNA levels in RP-1 periosteal cells (Northern blot); format: cell-based, rat; conditions: 10^-6 M
Description: (§1) RP-1 periosteal cells are spontaneously immortalized from primary cultures of periosteal cells from tibae of 4-week old Sprague-Dawley rats and are cultured in DMEM (BRL, Gaithersburg, Md.) with 10% fetal bovine serum (JRH Biosciences, Lenexa, Kans.). […] Total RNA is extracted from the tibial metaphysis or diaphysis and calvaria using a guanidinium isothiocyanate-phenol-chloroform method after pulverizing frozen bone samples by a tissue homogenizer. See P. Chomczynski et al., Single-step method of RNA isolation by acid guanidium thiocyanate-phenol-chloroform extraction., Analyt Biochem, 162, 156-159 (1987), which is incorporated by reference herein in its entirety. RNA samples ([…]) are separated on 0.9% agarose/formaldehyde gels and transferred onto nylon membranes (Boehringer Mannheim, Germany). Membranes are prehybridized in Hybrisol I (Oncor, Gaithersburg, Md.) and 0.5 mg/ml sonicated salmon sperm DNA (Boehringer) at 42° C. for 3 hours and are hybridized at 42° C. with rat EP2 and mouse EP4 cDNA probes labeled with [^32P]-dCTP (Amersham, Buckinghamshire, UK) by random priming using the rediprime kit (Amersham). After hybridization, membranes are washed 4 times in 2×SSC+0.1% SDS at room temperature for a total of 1 hour and once with 0.2×SSC+0.1% SDS at 55° C. for 1 hour and then exposed to Kodak XAR 2 film at −70° C. using intensifying screens. […]

EP4 mRNA [2] = assay: EP4 mRNA levels in RCT-3 cells (Northern blot); format: cell-based, rat
Description: (§2) RCT-1 and RCT-3 are clonal cell lines immortalized by SV-40 large T antigen from cells released from fetal rat calvair by a cmbination collagenase/hyaluronidase digestion. RCT-1 cells, derived from cells released during the first 10 minutes of digestion (fraction I), are cultured in RPMI 1640 medium (BRL) with 10% fetal bovine serum and 0.4 mg/ml G418 (BRL). […] RCT-3 cells, immortalized from osteoblast-enriched fraction III cells, are cultured in F-12 medium (BRL) with 5% Fetal bovine serum and 0.4 mg/ml G418. TRAB-11 cells are also immortalized by SV40 large T antigen from adult rat tibia and are cultured in RPMI 1640 medium with 10% FBS and 0.4 mg/ml G418. ROS 17/2.8 rat osteosarcoma cells are cultured in F-12 containing 5% FBS. Osteoblast-enriched (fraction III) primary fetal rat calvaria cells are obtained by collagenase/hyaluronidase digestion of calvariae of 19 day-old rat fetuses. See Rodan et al., Growth stimulation of rat calvaria osteoblastic cells by acidic FGF, Endocrinology, 121, 1919-1923 (1987), which is incorporated by reference herein in its entirety. Cells are released during 30-50 minutes digestion (fraction III) and are cultured in F-12 medium containing 5% FBS. Total RNA is extracted from the tibial metaphysis or diaphysis and calvaria using a guanidinium isothiocyanate-phenol-chloroform method after pulverizing frozen bone samples by a tissue homogenizer. […]

EP2 mRNA [3] = assay: EP2 mRNA expression in RP-1 cells (Northern blot); format: cell-based, rat
Description: as §1

ROS 17/2.8 cells = assay: Intracellular cAMP in ROS 17/2.8 cells; format: cell-based, rat
Description: as §2, with “FBS.” for “FBS. Total RNA is extracted from the tibial metaphysis or diaphysis and calvaria using a guanidinium isothiocyanate-phenol-chloroform method after pulverizing frozen bone samples by a tissue homogenizer.”

RCT-3 cells = assay: Intracellular cAMP in RCT-3 cells; format: cell-based, rat
Description: as §2, with “FBS.” for “FBS. Total RNA is extracted from the tibial metaphysis or diaphysis and calvaria using a guanidinium isothiocyanate-phenol-chloroform method after pulverizing frozen bone samples by a tissue homogenizer.”

TRAB-11 cells = assay: Intracellular cAMP in TRAB-11 cells; format: cell-based, rat
Description: as §2, with “FBS.” for “FBS. Total RNA is extracted from the tibial metaphysis or diaphysis and calvaria using a guanidinium isothiocyanate-phenol-chloroform method after pulverizing frozen bone samples by a tissue homogenizer.”

EP4 mRNA [4] = assay: EP4 mRNA levels in vivo in bone tissue after systemic administration (Northern blot); parameters: species or system rat
Description: For mRNA localization experiments, 5-week old Sprague-Dawley rats (Charles River) are euthanized by CO2, their tibiae and calvariae are excised, cleaned of soft tissues and frozen immediately in liquid nitrogen. For EP4 regulation experiments, 6-week old rats are given a single injection of either vehicle (7% ethanol in sterile water) or an anabolic dose of PGE2 (Cayman Chemical, Ann Arbor, Mich.), 3-6 mg/kg in the same vehicle) intraperitoneally. Animals are euthenized at several time points post-injection and their tibiae and calvariae, as well as samples from lung and kidney tissues are frozen in liquid nitrogen. Total RNA is extracted from the tibial metaphysis or diaphysis and calvaria using a guanidinium isothiocyanate-phenol-chloroform method after pulverizing frozen bone samples by a tissue homogenizer. See P. Chomczynski et al., Single-step method of RNA isolation by acid guanidium thiocyanate-phenol-chloroform extraction., Analyt Biochem, 162, 156-159 (1987), which is incorporated by reference herein in its entirety. RNA samples ([…]) are separated on 0.9% agarose/formaldehyde gels and transferred onto nylon membranes (Boehringer Mannheim, Germany). Membranes are prehybridized in Hybrisol I (Oncor, Gaithersburg, Md.) and 0.5 mg/ml sonicated salmon sperm DNA (Boehringer) at 42° C. for 3 hours and are hybridized at 42° C. with rat EP2 and mouse EP4 cDNA probes labeled with [^32P]-dCTP (Amersham, Buckinghamshire, UK) by random priming using the rediprime kit (Amersham). After hybridization, membranes are washed 4 times in 2×SSC+0.1% SDS at room temperature for a total of 1 hour and once with 0.2×SSC+0.1% SDS at 55° C. for 1 hour and then exposed to Kodak XAR 2 film at −70° C. using intensifying screens. After developing the films, bound probes are removed twice with 0.1% SDS at 80° C. and membranes are hybridized with a human GAPDH (Glyceraldehyde 3-Phosphate Dehydrogenase) cDNA probe (purchased from Clontech, Palo Alto, Calif.) for loading control. To examine if PGE2 regulates EP4 mRNA levels in vivo in bone tissue, […] male rats are injected with PGE2 (3-6 mg/Kg).

EP2 mRNA [5] = assay: EP2 mRNA in vivo in bone tissue after systemic administration; conditions: RP-1 cells and rat bone tissue
Description: For mRNA localization experiments, 5-week old Sprague-Dawley rats (Charles River) are euthanized by CO2, their tibiae and calvariae are excised, cleaned of soft tissues and frozen immediately in liquid nitrogen. For EP4 regulation experiments, 6-week old rats are given a single injection of either vehicle (7% ethanol in sterile water) or an anabolic dose of PGE2 (Cayman Chemical, Ann Arbor, Mich.), 3-6 mg/kg in the same vehicle) intraperitoneally. Animals are euthenized at several time points post-injection and their tibiae and calvariae, as well as samples from lung and kidney tissues are frozen in liquid nitrogen. Total RNA is extracted from the tibial metaphysis or diaphysis and calvaria using a guanidinium isothiocyanate-phenol-chloroform method after pulverizing frozen bone samples by a tissue homogenizer. See P. Chomczynski et al., Single-step method of RNA isolation by acid guanidium thiocyanate-phenol-chloroform extraction., Analyt Biochem, 162, 156-159 (1987), which is incorporated by reference herein in its entirety. RNA samples ([…]) are separated on 0.9% agarose/formaldehyde gels and transferred onto nylon membranes (Boehringer Mannheim, Germany). […]

EP4 mRNA [6] = assay: In situ hybridization of EP4 expression in tibial bone marrow cells; format: in vivo, rat; conditions: rats, single anabolic dose
Description: For mRNA localization experiments, 5-week old Sprague-Dawley rats (Charles River) are euthanized by CO2, their tibiae and calvariae are excised, cleaned of soft tissues and frozen immediately in liquid nitrogen. For EP4 regulation experiments, 6-week old rats are given a single injection of either vehicle (7% ethanol in sterile water) or an anabolic dose of PGE2 (Cayman Chemical, Ann Arbor, Mich.), 3-6 mg/kg in the same vehicle) intraperitoneally. Animals are euthenized at several time points post-injection and their tibiae and calvariae, as well as samples from lung and kidney tissues are frozen in liquid nitrogen.
Frozen tibiae are sectioned coronally at […] thickness and sections are mounted on charged slides (Probe On Plus, Fisher Scientific, Springfield, N.J.) and are kept at −70° C. until hybridization. cRNA probes are labeled with ^35S-UTPgS (ICN, Costa Mesa, Calif.) using a Riboprobe II kit (Promega Madison, Wis.). Hybridization is performed overnight at 50° C. […]
In situ hybridization is used in order to localize cells expressing EP4 in bone. In control experiment (vehicle-injected) rats, low expression of EP4 was detected in bone marrow cells. […]

[7] = rats, 3-6 mg/Kg, systemic injection
[8] = young adult rats, 3-6 mg/kg, systemic

CCCCCC(O)/C=C/[C@H]1C(O)CC(=O)C1C/C=C\CCCC(=O)O (stereo partly shown) [PGE2]
effect on EP4 mRNA levels (EP4 mRNA [1]): rapidly increases EP4 mRNA levels; also recorded: increases the level of EP4 mRNA
time of peak of EP4 mRNA levels after treatment (EP4 mRNA [1]): 2 h
effect on EP4 mRNA levels (EP4 mRNA [2]): no effect on EP4 mRNA levels
EP2 mRNA expression before or after treatment (EP2 mRNA [3]): not expressed
effect on intracellular cAMP (ROS 17/2.8 cells): no effect on intracellular cAMP
effect on intracellular cAMP (RCT-3 cells): markedly induced
effect on intracellular cAMP (TRAB-11 cells): markedly induced
effect on EP4 mRNA levels in tibial diaphysis (EP4 mRNA [4]; [7]): rapidly increased EP4 mRNA levels
time of peak of EP4 mRNA levels in tibial diaphysis after injection (EP4 mRNA [4]; [7]): 2 h
effect on expression of EP4 in tibiae and calvariae (EP4 mRNA [4]; [8]): upregulates the expression of EP4
time of peak of EP4 upregulation in tibiae and calvariae (EP4 mRNA [4]; [8]): 1 to 2 h
induction of EP2 mRNA in RP-1 cells and bone tissue (EP2 mRNA [5]): does not include EP2 mRNA
effect on expression of EP4 in bone marrow cells (EP4 mRNA [6]): increasesd the expression of EP4
